Measured values: patent publication US12570655B2, “Cysteine covalent modifiers of AKT1 and uses thereof” (Terremoto Biosciences, Inc., priority 2023, dated 2026)
Where two headings read alike, the source gives them in different places. Each block holds one molecule with its values, some of them ahead of it.

Experiments:
Type in all cases: cell-based
[1] = target: T1, AKT1 E17K (Homo sapiens, UniProt P31749, E17K); assay: Live cell AKT1 E17K target engagement by NanoBRET competitive probe displacement; settings: HEK293 cells transfected with kinase-NanoLuciferase fusion, 2 h at 37° C.
T1 construct: expressed in transfected cells; host or cells: HEK293
Procedure: (§1) Determining Live Cell AKT1 E17K, AKT1 WT, and AKT2 Target Engagement by NanoBRET Competitive Probe Displacement.
(§2) Live cell target engagement assays were performed as described (Vasta, J. D. et al. Cell Chem Biol 2018, 25(11), 206-214). Briefly, HEK293 cells were transfected with plasmids encoding kinase-NanoLuciferase fusion proteins overnight. Cells were then treated with serial dilutions of compound and an ˜EC50 concentration of fluorescently-tagged ATP-competitive tracer (Promega). After incubation for 2 h at 37° C., luciferase substrate and extracellular luciferase inhibitor were added to all wells, and luminescent intensity at 460 nm and 600 nm were measured on a multimode plate-reader. The ratio of E600/E460 was calculated to give the tracer engagement signal (BRET). IC50 values were calculated by fitting BRET values to a log(inhibitor) vs. response Hill equation.

[2] = tested on: LAPC4 prostate cancer cells; assay: Antiproliferative effects in LAPC4 cells (CellTiter Glo); settings: LAPC4 cells (AKT1 E17K allele), read-out: LAPC4 proliferation IC50
Procedure: Antiproliferative Effects in LAPC4 Cells.
LAPC4 prostate cancer cells (Klein, K. A. et al. Nat Med 1997, 3, 402-408), which express the AKT1 E17K allele, were grown in IMDM media (Hyclone) supplemented with 12% FBS+1% P/S. To assess compound effects on growth, 1,000 cells/well were seeded in 384 well assay plates, incubated with compound dilutions dissolved in DMSO. After 72 h, intracellular ATP content was assessed with CellTiter Glo reagent (Promega) according to the manufacturer's instructions. IC50 values were calculated by fitting luminescence values to a log(inhibitor) vs. response Hill equation.

[3] = target: T2, AKT2 (Homo sapiens, UniProt P31751); assay: Live cell AKT2 target engagement by NanoBRET competitive probe displacement; settings: HEK293 cells transfected with kinase-NanoLuciferase fusion, 2 h at 37° C.
T2 construct: expressed in transfected cells; host or cells: HEK293
Procedure: as §1, §2

[4] = target: T3, AKT1 WT (Homo sapiens, UniProt P31749); assay: Live cell AKT1 WT target engagement by NanoBRET competitive probe displacement; settings: HEK293 cells transfected with kinase-NanoLuciferase fusion, 2 h at 37° C.
T3 construct: expressed in transfected cells; host or cells: HEK293
Procedure: as §1, §2

T2 sequence (P31751 whole entry, the tested form may be a part): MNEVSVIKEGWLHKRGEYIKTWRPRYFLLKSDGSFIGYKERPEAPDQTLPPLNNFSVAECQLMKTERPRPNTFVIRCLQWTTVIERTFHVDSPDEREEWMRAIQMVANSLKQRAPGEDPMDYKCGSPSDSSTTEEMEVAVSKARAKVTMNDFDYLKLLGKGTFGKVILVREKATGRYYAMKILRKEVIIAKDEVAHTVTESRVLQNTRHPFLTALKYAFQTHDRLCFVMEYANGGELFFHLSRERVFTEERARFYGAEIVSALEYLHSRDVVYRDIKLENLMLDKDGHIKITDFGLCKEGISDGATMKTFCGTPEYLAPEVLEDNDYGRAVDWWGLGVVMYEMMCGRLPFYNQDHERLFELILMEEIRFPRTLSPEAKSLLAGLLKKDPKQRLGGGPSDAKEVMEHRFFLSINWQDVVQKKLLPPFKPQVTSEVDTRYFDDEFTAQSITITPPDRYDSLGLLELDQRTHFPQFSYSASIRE
T3 sequence (P31749 whole entry, the tested form may be a part): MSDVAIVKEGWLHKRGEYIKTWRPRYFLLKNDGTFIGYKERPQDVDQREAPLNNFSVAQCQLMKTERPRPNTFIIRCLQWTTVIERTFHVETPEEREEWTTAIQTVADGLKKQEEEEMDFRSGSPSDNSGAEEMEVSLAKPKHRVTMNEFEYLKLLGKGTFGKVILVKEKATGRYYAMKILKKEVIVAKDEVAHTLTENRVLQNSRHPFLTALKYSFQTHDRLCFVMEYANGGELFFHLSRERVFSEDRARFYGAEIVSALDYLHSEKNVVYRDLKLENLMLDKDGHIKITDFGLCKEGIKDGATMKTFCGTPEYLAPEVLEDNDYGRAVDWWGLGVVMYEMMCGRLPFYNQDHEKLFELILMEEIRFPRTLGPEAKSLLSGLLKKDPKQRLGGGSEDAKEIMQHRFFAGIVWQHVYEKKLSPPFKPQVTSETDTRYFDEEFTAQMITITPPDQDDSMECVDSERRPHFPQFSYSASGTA
T1 sequence (P31749 whole entry E17K, the tested form may be a part): as the sequence (P31749 whole entry, the tested form may be a part) above, with E17K counted along it

SMILES: C=CC(=O)N1CCC(N[C@@H]2c3ccc(-n4c(-c5ccccc5F)nc5ccc(-n6cccn6)nc54)cc3CC2F)C[C@H]1C (single isomer, unassigned) [Example 318, 1-((2R,4*)-4-(((1R,2*)-2-fluoro-5-(2-(2-fluorophenyl)-5-(1H-pyrazol-1-yl)-3H-imidazo[4,5-b]pyridin-3-yl)-2,3-dihydro-1H-inden-1-yl)amino)-2-methylpiperidin-1-yl)prop-2-en-1-one]
IC50 [1]: 29.7 nM
IC50 ([2]; 72 h): 626 nM
IC50 [3]: 111 nM

SMILES: C=CC(=O)N1CCC(N[C@@H]2c3ccc(-n4c(-c5cccnc5N)nc5ccc(C6CC6)nc54)cc3CC2F)CC1 (single isomer, unassigned) [Example 203, 1-(4-(((1R,2*)-5-(2-(2-aminopyridin-3-yl)-5-cyclopropyl-3H-imidazo[4,5-b]pyridin-3-yl)-2-fluoro-2,3-dihydro-1H-inden-1-yl)amino)piperidin-1-yl)prop-2-en-1-one]
IC50 [1]: 32.2 nM
IC50 ([2]; 72 h): 1760 nM
IC50 [3]: 874 nM

SMILES: C=CC(=O)N1CCC(N[C@@H]2c3ccc(-n4c(-c5ccccc5)nc5ccc(-n6cccn6)nc54)cc3CC2F)CC1 (single isomer, unassigned) [Example 249, 1-(4-(((1R,2*)-2-fluoro-5-(2-phenyl-5-(1H-pyrazol-1-yl)-3H-imidazo[4,5-b]pyridin-3-yl)-2,3-dihydro-1H-inden-1-yl)amino)piperidin-1-yl)prop-2-en-1-one]
IC50 [1]: 12.6 nM
IC50 ([2]; Homo sapiens, LAPC4, 72 h): 614 nM
IC50 [3]: 143 nM

SMILES: C=CC(=O)N1CCC(N[C@@H]2c3ccc(-n4c(-c5ccccc5)nc5ccc(-n6cccn6)nc54)cc3CC2F)CC1 (single isomer, unassigned) [Example 250, 1-(4-(((1R,2*)-2-fluoro-5-(2-phenyl-5-(1H-pyrazol-1-yl)-3H-imidazo[4,5-b]pyridin-3-yl)-2,3-dihydro-1H-inden-1-yl)amino)piperidin-1-yl)prop-2-en-1-one]
IC50 [1]: 14.7 nM
IC50 ([2]; 72 h): 559 nM
IC50 [3]: 134 nM

SMILES: C=CC(=O)N1CCC(N[C@@H]2c3ccc(-n4c(-c5ccccc5)nc5ccc(-n6ccc(F)n6)nc54)cc3CC2F)CC1 (stereo partly drawn) [Example 332, 1-(4-(((1R,2*)-2-fluoro-5-(5-(3-fluoro-1H-pyrazol-1-yl)-2-phenyl-3H-imidazo[4,5-b]pyridin-3-yl)-2,3-dihydro-1H-inden-1-yl)amino)piperidin-1-yl)prop-2-en-1-one]
IC50 [1]: 27.9 nM
IC50 [3]: 481 nM

SMILES: C=CC(=O)N1CCC(N[C@@H]2c3c(F)cc(-n4c(-c5cccnc5N)nc5ccc(-n6cccn6)nc54)cc3CC2F)CC1 (single isomer, unassigned) [Example 342, 1-(4-(((1R,2*)-5-(2-(2-aminopyridin-3-yl)-5-(1H-pyrazol-1-yl)-3H-imidazo[4,5-b]pyridin-3-yl)-2,7-difluoro-2,3-dihydro-1H-inden-1-yl)amino)piperidin-1-yl)prop-2-en-1-one]
IC50 [1]: 23.9 nM
IC50 [3]: 194 nM

SMILES: C=CC(=O)N1CCC(N[C@H]2CCc3cc(-n4c(-c5cccnc5N)nc5ccc(C(C)C)nc54)ccc32)CC1 [Example 242, 1-(4-{[(1S)-5-[2-(2-aminopyridin-3-yl)-5-isopropylimidazo[4,5-b]pyridin-3-yl]-2,3-dihydro-1H-inden-1-yl]amino}piperidin-1-yl)prop-2-en-1-one]
IC50 [1]: 30.4 nM
IC50 ([2]; Homo sapiens, LAPC4, 72 h): 756 nM
IC50 [4]: 1430 nM

SMILES: C=CC(=O)N1CCC(N[C@@H]2c3ccc(-n4c(-c5ccccc5)nc5ccc(-n6cccn6)nc54)cc3CC2F)CC1C(F)F (single isomer, unassigned) [Example 328, 1-((2*,4*)-2-(difluoromethyl)-4-(((1R,2*)-2-fluoro-5-(2-phenyl-5-(1H-pyrazol-1-yl)-3H-imidazo[4,5-b]pyridin-3-yl)-2,3-dihydro-1H-inden-1-yl)amino)piperidin-1-yl)prop-2-en-1-one]
IC50 [1]: 17.7 nM
IC50 [3]: 90.3 nM

SMILES: C=CC(=O)N1CCC(N[C@H]2CCc3cc(-n4c(-c5cccnc5N)nc5cc(-c6cccnc6)cnc54)ccc32)CC1 [Example 190, (S)-1-(4-((5-(2-(2-aminopyridin-3-yl)-6-(pyridin-3-yl)-3H-imidazo[4,5-b]pyridin-3-yl)-2,3-dihydro-1H-inden-1-yl)amino)piperidin-1-yl)prop-2-en-1-one]
IC50 [1]: 99.4 nM
IC50 ([2]; Homo sapiens, LAPC4, 72 h): 1320 nM
IC50 [4]: 735 nM

SMILES: C=CC(=O)N1CCC(N[C@H]2CCc3cc(-n4c(-c5cccnc5N)nc5ccc(-n6cccn6)nc54)ccc32)CC1CC#N (single isomer, unassigned) [Example 339, 2-((2*,4*)-1-acryloyl-4-(((S)-5-(2-(2-aminopyridin-3-yl)-5-(1H-pyrazol-1-yl)-3H-imidazo[4,5-b]pyridin-3-yl)-2,3-dihydro-1H-inden-1-yl)amino)piperidin-2-yl)acetonitrile]
IC50 [1]: 32.7 nM
IC50 [3]: 78.8 nM

SMILES: C=CC(=O)N1CCC(NC2CCc3cc(-n4c(-c5cccnc5N)nc5ccc(C(F)F)nc54)ccc32)CC1 (stereo in doubt) [Example 196, 1-(4-{[(1R)-5-[2-(2-aminopyridin-3-yl)-5-(difluoromethyl)imidazo[4,5-b]pyridin-3-yl]-?3-dihydro-1H-inden-1-yl]amino}piperidin-1-yl)prop-2-en-1-one]
IC50 [1]: 96.6 nM
IC50 ([2]; Homo sapiens, LAPC4, 72 h): 1210 nM
IC50 [4]: 1990 nM

SMILES: C=CC(=O)N1CCC(N[C@@H]2c3ccc(-n4c(-c5cccnc5N)nc5ccc(-n6cccn6)nc54)cc3CC2F)CC1C(F)F (single isomer, unassigned) [Example 303, 1-((2*,4*)-4-(((1R,2*)-5-(2-(2-aminopyridin-3-yl)-5-(1H-pyrazol-1-yl)-3H-imidazo[4,5-b]pyridin-3-yl)-2-fluoro-2,3-dihydro-1H-inden-1-yl)amino)-2-(difluoromethyl)piperidin-1-yl)prop-2-en-1-one]
IC50 [1]: 10.9 nM
IC50 ([2]; 72 h): 15.1 nM
IC50 [4]: 22.1 nM

Molecules with a lower IC50 [1], results first:

IC50 [1]: 9.37 nM
IC50 ([2]; Homo sapiens, LAPC4, 72 h): 17.9 nM
IC50 [4]: 23.5 nM
SMILES: C=CC(=O)N1CCC(N[C@@H]2CCc3cc(-n4c(-c5cccnc5N)nc5ccc(-n6cccn6)nc54)ccc3C2)CC1 [Example 295, 1-(4-{[(2R)-6-[2-(2-aminopyridin-3-yl)-5-(pyrazol-1-yl)imidazo[4,5-b]pyridin-3-yl]-1,2,3,4-tetrahydronaphthalen-2-yl]amino}piperidin-1-yl)prop-2-en-1-one]

IC50 [1]: 9.32 nM
IC50 ([2]; Homo sapiens, LAPC4, 72 h): 603 nM
IC50 [4]: 1180 nM
SMILES: C=CC(=O)N1CCC(N[C@@H]2c3ccc(-n4c(-c5ccccc5F)nc5ccc(-n6cccn6)nc54)cc3CC2F)CC1 (single isomer, unassigned) [Example 299, 1-(4-(((1R,2*)-2-fluoro-5-(2-(2-fluorophenyl)-5-(1H-pyrazol-1-yl)-3H-imidazo[4,5-b]pyridin-3-yl)-2,3-dihydro-1H-inden-1-yl)amino)piperidin-1-yl)prop-2-en-1-one]

IC50 [1]: 8.86 nM
IC50 ([2]; 72 h): 172 nM
IC50 [4]: 105 nM
SMILES: C=CC(=O)N1CCC(N[C@@H]2c3ccc(-n4c(-c5cccnc5N)nc5ccc(-n6cccn6)nc54)cc3CC2F)CC1C(F)F (single isomer, unassigned) [Example 301, 1-((2*,4*)-4-(((1R,2*)-5-(2-(2-aminopyridin-3-yl)-5-(1H-pyrazol-1-yl)-3H-imidazo[4,5-b]pyridin-3-yl)-2-fluoro-2,3-dihydro-1H-inden-1-yl)amino)-2-(difluoromethyl)piperidin-1-yl)prop-2-en-1-one]

IC50 [1]: 6.85 nM
IC50 ([2]; Homo sapiens, LAPC4, 72 h): 134 nM
IC50 [4]: 44.9 nM
SMILES: C=CC(=O)N1CCN(CC2CCc3cc(-n4c(-c5cccnc5N)nc5ccc(-n6cccn6)nc54)ccc32)C[C@H]1C (single isomer, unassigned) [Example 292, 1-((R)-4-(((*)-5-(2-(2-aminopyridin-3-yl)-5-(1H-pyrazol-1-yl)-3H-imidazo[4,5-b]pyridin-3-yl)-2,3-dihydro-1H-inden-1-yl)methyl)-2-methylpiperazin-1-yl)prop-2-en-1-one]

IC50 [1]: 4.87 nM
IC50 ([2]; 72 h): 9.69 nM
IC50 [4]: 13.8 nM
SMILES: C=CC(=O)N1CCC(N[C@H]2CCc3cc(-n4c(-c5cccnc5N)nc5ccc(-n6cccn6)nc54)ccc32)C[C@@H]1C(F)F (single isomer, unassigned) [Example 213, 1-((2R,4*)-4-(((S)-5-(2-(2-aminopyridin-3-yl)-5-(1H-pyrazol-1-yl)-3H-imidazo[4,5-b]pyridin-3-yl)-2,3-dihydro-1H-inden-1-yl)amino)-2-(difluoromethyl)piperidin-1-yl)prop-2-en-1-one]

IC50 [1]: 4.72 nM
IC50 ([2]; Homo sapiens, LAPC4, 72 h): 26.7 nM
IC50 [4]: 36.5 nM
SMILES: C=CC(=O)N1CCC(N[C@H]2CCc3cc(-n4c(-c5cccnc5N)nc5ccc(-n6cccn6)nc54)ccc32)C[C@H]1C(F)F (single isomer, unassigned) [Example 214, 1-((2S,4*)-4-(((S)-5-(2-(2-aminopyridin-3-yl)-5-(1H-pyrazol-1-yl)-3H-imidazo[4,5-b]pyridin-3-yl)-2,3-dihydro-1H-inden-1-yl)amino)-2-(difluoromethyl)piperidin-1-yl)prop-2-en-1-one]
